# pIC50: −log10 of the molar value.
# System: 695427-040-R-J1-PDC complex spheroid viability
# Assay: Anticancer human tumor 695427-040-R-J1-PDC patient-derived colon adenocarcinoma cell line growth inhibition [POLQ]
# Conditions: for pIC50: curve of first compound; for viability, T/C: stronger effect = lower value
# Method in brief: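 Three-cell-type spheroids modelling solid tumor plus stroma served as the readout system; POL inhibitors were tested individually and in combination, concentration ranges set by clinical Cmax where known.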
# [1] = second compound 0.0316 µM, first compound 0.0316 µM
# [2] = second compound 0.0316 µM, first compound 0.1 µM
# [3] = second compound 0.0316 µM, first compound 0.316 µM
# [4] = second compound 0.0316 µM, first compound 1 µM
# [5] = second compound 0.0316 µM, first compound 3.16 µM
# [6] = second compound 0.0316 µM, first compound 10 µM
# [7] = second compound 0.1 µM, first compound 0.0316 µM
# [8] = second compound 0.1 µM, first compound 0.1 µM
# [9] = second compound 0.1 µM, first compound 0.316 µM
# [10] = second compound 0.1 µM, first compound 1 µM
# [11] = second compound 0.1 µM, first compound 3.16 µM
# [12] = second compound 0.1 µM, first compound 10 µM
# [13] = second compound 0.316 µM, first compound 0.0316 µM
# [14] = second compound 0.316 µM, first compound 0.1 µM
# [15] = second compound 0.316 µM, first compound 0.316 µM
# [16] = second compound 0.316 µM, first compound 1 µM
# [17] = second compound 0.316 µM, first compound 3.16 µM
# [18] = second compound 0.316 µM, first compound 10 µM
# [19] = second compound 1 µM, first compound 0.0316 µM
# [20] = second compound 1 µM, first compound 0.1 µM
# [21] = second compound 1 µM, first compound 0.316 µM
# [22] = second compound 1 µM, first compound 1 µM
# [23] = second compound 1 µM, first compound 3.16 µM
# [24] = second compound 1 µM, first compound 10 µM
# [25] = second compound 3.16 µM, first compound 0.0316 µM
# [26] = second compound 3.16 µM, first compound 0.1 µM
# [27] = second compound 3.16 µM, first compound 0.316 µM
# [28] = second compound 3.16 µM, first compound 1 µM
# [29] = second compound 3.16 µM, first compound 3.16 µM
# [30] = second compound 3.16 µM, first compound 10 µM
# [31] = second compound 10 µM, first compound 0.0316 µM
# [32] = second compound 10 µM, first compound 0.1 µM
# [33] = second compound 10 µM, first compound 0.316 µM
# [34] = second compound 10 µM, first compound 1 µM
# [35] = second compound 10 µM, first compound 3.16 µM
# [36] = second compound 10 µM, first compound 10 µM
# 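Further: spheroids exposed to compounds for seven days.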
# 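Wherever viability, T/C is given: 100% = DMSO vehicle control viability.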
smiles,measurement,setting,value
CC(=O)O[C@H]1C(=O)[C@@]2(C)[C@H]([C@H](OC(=O)c3ccccc3)[C@]3(O)C[C@H](OC(=O)[C@H](O)[C@@H](NC(=O)c4ccccc4)c4ccccc4)C(C)=C1C3(C)C)[C@]1(OC(C)=O)CO[C@@H]1C[C@@H]2O + COC1C(OC(N)=O)C(O)C(Oc2ccc3c(O)c(NC(=O)c4ccc(O)c(CC=C(C)C)c4)c(=O)oc3c2C)OC1(C)C,pIC50,second compound 0.0316 µM,< 5.52
same,pIC50,second compound 0.1 µM,< 5.52
same,pIC50,second compound 0.316 µM,< 5.52
same,pIC50,second compound 1 µM,< 5.52
same,pIC50,second compound 3.16 µM,< 5.52
same,pIC50,second compound 10 µM,< 5.52
same,"viability, T/C","second compound 0.0316 µM, first compound 0.00949 µM",96.4%
same,"viability, T/C","second compound 0.0316 µM, first compound 0.03 µM",85.9%
same,"viability, T/C","second compound 0.0316 µM, first compound 0.0949 µM",84.7%
same,"viability, T/C","second compound 0.0316 µM, first compound 0.3 µM",89.5%
same,"viability, T/C","second compound 0.0316 µM, first compound 0.949 µM",84.6%
same,"viability, T/C","second compound 0.0316 µM, first compound 3 µM",72.2%
same,"viability, T/C","second compound 0.1 µM, first compound 0.00949 µM",96.4%
same,"viability, T/C","second compound 0.1 µM, first compound 0.03 µM",98.1%
same,"viability, T/C","second compound 0.1 µM, first compound 0.0949 µM",94.1%
same,"viability, T/C","second compound 0.1 µM, first compound 0.3 µM",85.9%
same,"viability, T/C","second compound 0.1 µM, first compound 0.949 µM",89.8%
same,"viability, T/C","second compound 0.1 µM, first compound 3 µM",72.4%
same,"viability, T/C","second compound 0.316 µM, first compound 0.00949 µM",103%
same,"viability, T/C","second compound 0.316 µM, first compound 0.03 µM",91.4%
same,"viability, T/C","second compound 0.316 µM, first compound 0.0949 µM",91%
same,"viability, T/C","second compound 0.316 µM, first compound 0.3 µM",92.4%
same,"viability, T/C","second compound 0.316 µM, first compound 0.949 µM",88.1%
same,"viability, T/C","second compound 0.316 µM, first compound 3 µM",77.9%
same,"viability, T/C","second compound 1 µM, first compound 0.00949 µM",99.2%
same,"viability, T/C","second compound 1 µM, first compound 0.03 µM",93.3%
same,"viability, T/C","second compound 1 µM, first compound 0.0949 µM",86.1%
same,"viability, T/C","second compound 1 µM, first compound 0.3 µM",90.5%
same,"viability, T/C","second compound 1 µM, first compound 0.949 µM",88.5%
same,"viability, T/C","second compound 1 µM, first compound 3 µM",78.6%
same,"viability, T/C","second compound 3.16 µM, first compound 0.00949 µM",92.5%
same,"viability, T/C","second compound 3.16 µM, first compound 0.03 µM",97.9%
same,"viability, T/C","second compound 3.16 µM, first compound 0.0949 µM",86.7%
same,"viability, T/C","second compound 3.16 µM, first compound 0.3 µM",87.3%
same,"viability, T/C","second compound 3.16 µM, first compound 0.949 µM",87.6%
same,"viability, T/C","second compound 3.16 µM, first compound 3 µM",76.3%
same,"viability, T/C","second compound 10 µM, first compound 0.00949 µM",93.7%
same,"viability, T/C","second compound 10 µM, first compound 0.03 µM",97.2%
same,"viability, T/C","second compound 10 µM, first compound 0.0949 µM",91.7%
same,"viability, T/C","second compound 10 µM, first compound 0.3 µM",88.5%
same,"viability, T/C","second compound 10 µM, first compound 0.949 µM",87.6%
same,"viability, T/C","second compound 10 µM, first compound 3 µM",77%
COc1cc(C2c3cc4c(cc3C(OC3OC5COC(C)OC5C(O)C3O)C3COC(=O)C23)OCO4)cc(OC)c1O (stereo not drawn) + COC1C(OC(N)=O)C(O)C(Oc2ccc3c(O)c(NC(=O)c4ccc(O)c(CC=C(C)C)c4)c(=O)oc3c2C)OC1(C)C,pIC50,second compound 0.0316 µM,< 5.00
same,pIC50,second compound 0.1 µM,< 5.00
same,pIC50,second compound 0.316 µM,< 5.00
same,pIC50,second compound 1 µM,< 5.00
same,pIC50,second compound 3.16 µM,< 5.00
same,pIC50,second compound 10 µM,< 5.00
same,"viability, T/C",[1],96.7%
same,"viability, T/C",[2],92.3%
same,"viability, T/C",[3],98.8%
same,"viability, T/C",[4],96.2%
same,"viability, T/C",[5],98.4%
same,"viability, T/C",[6],82.4%
same,"viability, T/C",[7],101%
same,"viability, T/C",[8],93.4%
same,"viability, T/C",[9],101%
same,"viability, T/C",[10],93.8%
same,"viability, T/C",[11],99.5%
same,"viability, T/C",[12],83.6%
same,"viability, T/C",[13],104%
same,"viability, T/C",[14],92.3%
same,"viability, T/C",[15],94.7%
same,"viability, T/C",[16],97%
same,"viability, T/C",[17],95.3%
same,"viability, T/C",[18],80.6%
same,"viability, T/C",[19],107%
same,"viability, T/C",[20],98.5%
same,"viability, T/C",[21],112%
same,"viability, T/C",[22],100%
same,"viability, T/C",[23],96.4%
same,"viability, T/C",[24],83.7%
same,"viability, T/C",[25],99.4%
same,"viability, T/C",[26],98.3%
same,"viability, T/C",[27],101%
same,"viability, T/C",[28],101%
same,"viability, T/C",[29],98.9%
same,"viability, T/C",[30],82.8%
same,"viability, T/C",[31],94.5%
same,"viability, T/C",[32],95.2%
same,"viability, T/C",[33],95.3%
same,"viability, T/C",[34],99.9%
same,"viability, T/C",[35],103%
same,"viability, T/C",[36],83.2%
COc1cccc2c1C(=O)c1c(O)c3c(c(O)c1C2=O)CC(O)(C(=O)CO)CC3OC1CC(N)C(O)C(C)O1 (stereo not drawn) + COC1C(OC(N)=O)C(O)C(Oc2ccc3c(O)c(NC(=O)c4ccc(O)c(CC=C(C)C)c4)c(=O)oc3c2C)OC1(C)C,pIC50,second compound 0.0316 µM,< 5.00
same,pIC50,second compound 0.1 µM,< 5.00
same,pIC50,second compound 0.316 µM,< 5.00
same,pIC50,second compound 1 µM,< 5.00
same,pIC50,second compound 3.16 µM,< 5.00
same,pIC50,second compound 10 µM,< 5.00
same,"viability, T/C",[1],98.1%
same,"viability, T/C",[2],96.5%
same,"viability, T/C",[3],98%
same,"viability, T/C",[4],74%
same,"viability, T/C",[5],68.2%
same,"viability, T/C",[6],54.5%
same,"viability, T/C",[7],106%
same,"viability, T/C",[8],95.2%
same,"viability, T/C",[9],95.1%
same,"viability, T/C",[10],74.4%
same,"viability, T/C",[11],64%
same,"viability, T/C",[12],51.5%
same,"viability, T/C",[13],102%
same,"viability, T/C",[14],91.6%
same,"viability, T/C",[15],84%
same,"viability, T/C",[16],79%
same,"viability, T/C",[17],65.9%
same,"viability, T/C",[18],48.6%
same,"viability, T/C",[19],98.4%
same,"viability, T/C",[20],95.1%
same,"viability, T/C",[21],92.1%
same,"viability, T/C",[22],81.1%
same,"viability, T/C",[23],68.3%
same,"viability, T/C",[24],50.3%
same,"viability, T/C",[25],99.4%
same,"viability, T/C",[26],98%
same,"viability, T/C",[27],88.9%
same,"viability, T/C",[28],75.7%
same,"viability, T/C",[29],70.1%
same,"viability, T/C",[30],54.5%
same,"viability, T/C",[31],103%
same,"viability, T/C",[32],90.5%
same,"viability, T/C",[33],105%
same,"viability, T/C",[34],87.3%
same,"viability, T/C",[35],67.5%
same,"viability, T/C",[36],55.8%
O=c1[nH]cc(F)c(=O)[nH]1 + COC1C(OC(N)=O)C(O)C(Oc2ccc3c(O)c(NC(=O)c4ccc(O)c(CC=C(C)C)c4)c(=O)oc3c2C)OC1(C)C,pIC50,second compound 0.0316 µM,< 5.00
same,pIC50,second compound 0.1 µM,< 5.00
same,pIC50,second compound 0.316 µM,< 5.00
same,pIC50,second compound 1 µM,< 5.00
same,pIC50,second compound 3.16 µM,< 5.00
same,pIC50,second compound 10 µM,< 5.00
same,"viability, T/C",[1],95.8%
same,"viability, T/C",[2],101%
same,"viability, T/C",[3],111%
same,"viability, T/C",[4],103%
same,"viability, T/C",[5],103%
same,"viability, T/C",[6],107%
same,"viability, T/C",[7],106%
same,"viability, T/C",[8],107%
same,"viability, T/C",[9],108%
same,"viability, T/C",[10],106%
same,"viability, T/C",[11],112%
same,"viability, T/C",[12],97.2%
same,"viability, T/C",[13],114%
same,"viability, T/C",[14],106%
same,"viability, T/C",[15],112%
same,"viability, T/C",[16],99.5%
same,"viability, T/C",[17],109%
same,"viability, T/C",[18],96.4%
same,"viability, T/C",[19],104%
same,"viability, T/C",[20],101%
same,"viability, T/C",[21],108%
same,"viability, T/C",[22],101%
same,"viability, T/C",[23],97.6%
same,"viability, T/C",[24],96.8%
same,"viability, T/C",[25],109%
same,"viability, T/C",[26],97.7%
same,"viability, T/C",[27],99.2%
same,"viability, T/C",[28],105%
same,"viability, T/C",[29],106%
same,"viability, T/C",[30],97.9%
same,"viability, T/C",[31],99.6%
same,"viability, T/C",[32],97.1%
same,"viability, T/C",[33],105%
same,"viability, T/C",[34],101%
same,"viability, T/C",[35],98.3%
same,"viability, T/C",[36],101%

# From PubChem BioAssay AID1963840 (Molecular Pharmacology Branch, DTP, NCI, 2024)
